# Species on record: Rattus norvegicus
# Assay: Open TG-GATES - Regimen: Daily Repeat
# Assay type: toxicity, organism-based, Sprague-Dawley
# Parameters: regimen Daily Repeat, gender Male, age 6 weeks
# Conditions: in vivo, po, 30 mg/kg, route gavage, dose level High; for APTT / Bas / Eos / Fbg / Hb / Ht / Lym / MCH / MCHC / MCV / Mono / Neu / PT / Plat / RBC / Ret / WBC: tissue Blood; for KIDNEY_L / KIDNEY_R / KIDNEY_TOTAL: tissue Kidney; for LIVER: tissue Liver; for A/G / ALP / ALT / AST / BUN / CRE / Ca / Cl / DBIL / GLC / IP / K / LDH / Na / PL / RALB / TBIL / TC / TG / TP / gamma-GTP: tissue Plasma
compound,measurement,setting,value
Nc1c2c(nc3ccccc13)CCCC2 [TACRINE],TERMINAL_BW,"72 h, time 3 day",194.7 g
same,APTT,"72 h, time 3 day",21.3 s
same,Bas,"72 h, time 3 day",0%
same,Eos,"72 h, time 3 day",0.7%
same,Fbg,"72 h, time 3 day",361.7 mg/dL
same,Hb,"72 h, time 3 day",14.3 g/dL
same,Ht,"72 h, time 3 day",40.7%
same,Lym,"72 h, time 3 day",73%
same,MCH,"72 h, time 3 day",21 pg
same,MCHC,"72 h, time 3 day",35.1%
same,MCV,"72 h, time 3 day",59.8 fL
same,Mono,"72 h, time 3 day",2.7%
same,Neu,"72 h, time 3 day",22%
same,PT,"72 h, time 3 day",16.1 s
same,Plat,"72 h, time 3 day",120.4 x10_4/uL
same,RBC,"72 h, time 3 day",681.7 x10_4/ul
same,Ret,"72 h, time 3 day",3%
same,WBC,"72 h, time 3 day",79 x10_2/uL
same,KIDNEY_L,"72 h, time 3 day",0.9 g
same,KIDNEY_R,"72 h, time 3 day",0.9 g
same,KIDNEY_TOTAL,"72 h, time 3 day",1.9 g
same,LIVER,"72 h, time 3 day",8.6 g
same,A/G,"72 h, time 3 day",1.2
same,ALP,"72 h, time 3 day",1465.3 IU/L
same,ALT,"72 h, time 3 day",37.3 IU/L
same,AST,"72 h, time 3 day",82.7 IU/L
same,BUN,"72 h, time 3 day",16.3 mg/dL
same,CRE,"72 h, time 3 day",0.2 mg/dL
same,Ca,"72 h, time 3 day",10.8 mg/dL
same,Cl,"72 h, time 3 day",107.3 meq/L
same,DBIL,"72 h, time 3 day",0.0067 mg/dL
same,GLC,"72 h, time 3 day",169 mg/dL
same,IP,"72 h, time 3 day",7.4 mg/dL
same,K,"72 h, time 3 day",4.1 meq/L
same,LDH,"72 h, time 3 day",229.7 IU/L
same,Na,"72 h, time 3 day",140.7 meq/L
same,PL,"72 h, time 3 day",142.7 mg/dL
same,RALB,"72 h, time 3 day",3.2 g/dL
same,TBIL,"72 h, time 3 day",0.0233 mg/dL
same,TC,"72 h, time 3 day",84 mg/dL
same,TG,"72 h, time 3 day",52 mg/dL
same,TP,"72 h, time 3 day",5.8 g/dL
same,gamma-GTP,"72 h, time 3 day",1 IU/L
same,TERMINAL_BW,"[…], time 7 day",217.1 g
same,TERMINAL_BW,"[…], time 14 day",249.3 g
same,TERMINAL_BW,"[…], time 28 day",315.1 g
same,APTT,"[…], time 7 day",22.7 s
same,Bas,"[…], time 7 day",0%
same,Eos,"[…], time 7 day",0.7%
same,Fbg,"[…], time 7 day",325.7 mg/dL
same,Hb,"[…], time 7 day",14.2 g/dL
same,Ht,"[…], time 7 day",40.2%
same,Lym,"[…], time 7 day",73%
same,MCH,"[…], time 7 day",21.1 pg
same,MCHC,"[…], time 7 day",35.3%
same,MCV,"[…], time 7 day",59.7 fL
same,Mono,"[…], time 7 day",3.3%
same,Neu,"[…], time 7 day",22.3%
same,PT,"[…], time 7 day",16.2 s
same,Plat,"[…], time 7 day",127.6 x10_4/uL
same,RBC,"[…], time 7 day",673.7 x10_4/ul
same,Ret,"[…], time 7 day",4.7%
same,WBC,"[…], time 7 day",124.6 x10_2/uL
same,APTT,"[…], time 14 day",23.8 s
same,Bas,"[…], time 14 day",0%
same,Eos,"[…], time 14 day",1%
same,Fbg,"[…], time 14 day",320 mg/dL
same,Hb,"[…], time 14 day",15.1 g/dL
same,Ht,"[…], time 14 day",41.9%
same,Lym,"[…], time 14 day",79.3%
same,MCH,"[…], time 14 day",20.4 pg
same,MCHC,"[…], time 14 day",36%
same,MCV,"[…], time 14 day",56.8 fL
same,Mono,"[…], time 14 day",1.7%
same,Neu,"[…], time 14 day",17.3%
same,PT,"[…], time 14 day",15.8 s
same,Plat,"[…], time 14 day",126 x10_4/uL
same,RBC,"[…], time 14 day",737.3 x10_4/ul
same,Ret,"[…], time 14 day",3.5%
same,WBC,"[…], time 14 day",110.7 x10_2/uL
same,APTT,"[…], time 28 day",21.4 s
same,Bas,"[…], time 28 day",0%
same,Eos,"[…], time 28 day",1%
same,Fbg,"[…], time 28 day",295 mg/dL
same,Hb,"[…], time 28 day",15 g/dL
same,Ht,"[…], time 28 day",41.2%
same,Lym,"[…], time 28 day",74%
same,MCH,"[…], time 28 day",20.1 pg
same,MCHC,"[…], time 28 day",36.4%
same,MCV,"[…], time 28 day",55.1 fL
same,Mono,"[…], time 28 day",2%
same,Neu,"[…], time 28 day",22%
same,PT,"[…], time 28 day",16.5 s
same,Plat,"[…], time 28 day",114.6 x10_4/uL
same,RBC,"[…], time 28 day",748 x10_4/ul
same,Ret,"[…], time 28 day",3.3%
same,WBC,"[…], time 28 day",119.9 x10_2/uL
same,KIDNEY_L,"[…], time 7 day",1 g
same,KIDNEY_R,"[…], time 7 day",1 g
same,KIDNEY_TOTAL,"[…], time 7 day",1.9 g
same,KIDNEY_L,"[…], time 14 day",1.1 g
same,KIDNEY_R,"[…], time 14 day",1.1 g
same,KIDNEY_TOTAL,"[…], time 14 day",2.2 g
same,KIDNEY_L,"[…], time 28 day",1.2 g
same,KIDNEY_R,"[…], time 28 day",1.2 g
same,KIDNEY_TOTAL,"[…], time 28 day",2.4 g
same,LIVER,"[…], time 7 day",8.9 g
same,LIVER,"[…], time 14 day",9.8 g
same,LIVER,"[…], time 28 day",11.2 g
same,A/G,"[…], time 7 day",1.2
same,ALP,"[…], time 7 day",923 IU/L
same,ALT,"[…], time 7 day",41 IU/L
same,AST,"[…], time 7 day",79.7 IU/L
same,BUN,"[…], time 7 day",15 mg/dL
same,CRE,"[…], time 7 day",0.2 mg/dL
same,Ca,"[…], time 7 day",10.9 mg/dL
same,Cl,"[…], time 7 day",105.7 meq/L
same,DBIL,"[…], time 7 day",0.0033 mg/dL
same,GLC,"[…], time 7 day",176.3 mg/dL
same,IP,"[…], time 7 day",9.6 mg/dL
same,K,"[…], time 7 day",4.2 meq/L
same,LDH,"[…], time 7 day",268.3 IU/L
same,Na,"[…], time 7 day",141 meq/L
same,PL,"[…], time 7 day",140.7 mg/dL
same,RALB,"[…], time 7 day",3 g/dL
same,TBIL,"[…], time 7 day",0.0167 mg/dL
same,TC,"[…], time 7 day",70.7 mg/dL
same,TG,"[…], time 7 day",95.7 mg/dL
same,TP,"[…], time 7 day",5.6 g/dL
same,gamma-GTP,"[…], time 7 day",1 IU/L
same,A/G,"[…], time 14 day",1.2
same,ALP,"[…], time 14 day",1172 IU/L
same,ALT,"[…], time 14 day",39 IU/L
same,AST,"[…], time 14 day",74.7 IU/L
same,BUN,"[…], time 14 day",19.7 mg/dL
same,CRE,"[…], time 14 day",0.2 mg/dL
same,Ca,"[…], time 14 day",10.9 mg/dL
same,Cl,"[…], time 14 day",106.3 meq/L
same,DBIL,"[…], time 14 day",0 mg/dL
same,GLC,"[…], time 14 day",174 mg/dL
same,IP,"[…], time 14 day",8.1 mg/dL
same,K,"[…], time 14 day",4.6 meq/L
same,LDH,"[…], time 14 day",212.7 IU/L
same,Na,"[…], time 14 day",141 meq/L
same,PL,"[…], time 14 day",143 mg/dL
same,RALB,"[…], time 14 day",3 g/dL
same,TBIL,"[…], time 14 day",0.02 mg/dL
same,TC,"[…], time 14 day",69.3 mg/dL
same,TG,"[…], time 14 day",104 mg/dL
same,TP,"[…], time 14 day",5.5 g/dL
same,gamma-GTP,"[…], time 14 day",1 IU/L
same,A/G,"[…], time 28 day",1
same,ALP,"[…], time 28 day",1280 IU/L
same,ALT,"[…], time 28 day",35 IU/L
same,AST,"[…], time 28 day",81 IU/L
same,BUN,"[…], time 28 day",17 mg/dL
same,CRE,"[…], time 28 day",0.2 mg/dL
same,Ca,"[…], time 28 day",10.4 mg/dL
same,Cl,"[…], time 28 day",106 meq/L
same,DBIL,"[…], time 28 day",0 mg/dL
same,GLC,"[…], time 28 day",160 mg/dL
same,IP,"[…], time 28 day",8.2 mg/dL
same,K,"[…], time 28 day",4.2 meq/L
same,LDH,"[…], time 28 day",96 IU/L
same,Na,"[…], time 28 day",143 meq/L
same,PL,"[…], time 28 day",128 mg/dL
same,RALB,"[…], time 28 day",2.9 g/dL
same,TBIL,"[…], time 28 day",0.03 mg/dL
same,TC,"[…], time 28 day",71 mg/dL
same,TG,"[…], time 28 day",64 mg/dL
same,TP,"[…], time 28 day",5.7 g/dL
same,gamma-GTP,"[…], time 28 day",1 IU/L

# Reference: ChEMBL document CHEMBL3885861, “Open TG-GATES”
